Measured values reported in patent US11318137B2, “Quinazoline compounds as modulators of Ras signaling” (VANDERBILT UNIVERSITY, priority 2017, dated 2022).
Values belong to the compound of their own block, whether it stands above or below them.

How the values were obtained:
[1] = biological target: T1, SOS-mediated nucleotide exchange on Ras (Homo sapiens, UniProt Q07889); assay: SOS-mediated nucleotide exchange on Ras (BODIPY-GDP fluorescence); type: biochemical; settings: Ras loaded with BODIPY-GDP, GTP and SOS added; EC50 from derived exchange rates
T1 sequence (Q07889 1-1333): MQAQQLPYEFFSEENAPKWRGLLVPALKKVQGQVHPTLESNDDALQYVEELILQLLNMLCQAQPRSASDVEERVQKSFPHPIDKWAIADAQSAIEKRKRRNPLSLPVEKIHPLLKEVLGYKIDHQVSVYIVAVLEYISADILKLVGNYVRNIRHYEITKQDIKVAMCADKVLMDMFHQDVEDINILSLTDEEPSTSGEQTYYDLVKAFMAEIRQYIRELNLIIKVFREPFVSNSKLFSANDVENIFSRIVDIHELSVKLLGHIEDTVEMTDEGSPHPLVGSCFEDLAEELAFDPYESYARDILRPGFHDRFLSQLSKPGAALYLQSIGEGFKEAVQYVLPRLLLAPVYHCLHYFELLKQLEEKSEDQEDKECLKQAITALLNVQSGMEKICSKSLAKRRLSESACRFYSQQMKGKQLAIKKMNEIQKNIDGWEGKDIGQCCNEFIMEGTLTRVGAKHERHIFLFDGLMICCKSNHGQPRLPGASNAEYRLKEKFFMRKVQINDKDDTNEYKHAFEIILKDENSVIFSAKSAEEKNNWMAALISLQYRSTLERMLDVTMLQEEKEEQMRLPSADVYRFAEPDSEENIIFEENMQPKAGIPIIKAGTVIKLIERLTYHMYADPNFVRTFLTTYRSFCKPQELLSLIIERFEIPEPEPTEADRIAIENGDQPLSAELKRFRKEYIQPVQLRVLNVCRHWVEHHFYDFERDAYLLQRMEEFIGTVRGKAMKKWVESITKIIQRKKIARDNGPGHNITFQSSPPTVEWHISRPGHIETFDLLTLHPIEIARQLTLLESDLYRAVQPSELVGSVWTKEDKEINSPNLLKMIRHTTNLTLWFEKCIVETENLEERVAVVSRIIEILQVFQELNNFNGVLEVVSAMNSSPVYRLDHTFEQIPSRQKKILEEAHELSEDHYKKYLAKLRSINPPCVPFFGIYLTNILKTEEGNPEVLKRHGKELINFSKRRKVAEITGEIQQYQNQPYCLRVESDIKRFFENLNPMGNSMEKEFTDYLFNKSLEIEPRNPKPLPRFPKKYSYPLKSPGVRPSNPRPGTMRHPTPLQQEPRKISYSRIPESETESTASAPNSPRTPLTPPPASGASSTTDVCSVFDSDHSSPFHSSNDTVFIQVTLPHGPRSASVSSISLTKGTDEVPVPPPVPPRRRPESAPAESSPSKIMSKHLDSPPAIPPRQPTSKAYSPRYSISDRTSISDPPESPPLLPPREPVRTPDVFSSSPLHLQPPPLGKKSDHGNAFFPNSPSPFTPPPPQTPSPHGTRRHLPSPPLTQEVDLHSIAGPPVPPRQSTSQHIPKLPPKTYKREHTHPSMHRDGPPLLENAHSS
Procedure: A. SOS-Mediated Nucleotide Exchange on Ras
Compounds of the present invention were tested for their ability to modify the rate at which Ras exchanges a labeled nucleotide guanosine diphosphate (GDP) analog for guanosine triphosphate (GTP). Briefly, test compounds, then GTP and the Ras GEF SOS (Son of Sevenless) are added to a buffered solution containing Ras protein loaded with BODIPY-GDP. Changes in fluorescence indicating exchange of the labeled GDP for GTP are monitored over time. Raw fluorescence data was fit to a single exponential decay function and derived rates were plotted as mean values. EC50 values were calculated by plotting mean derived rates as a function of compound concentration and fit using a four-parameter dose-response curve. Full assay details are disclosed in: Burns, M. C.; Sun, Q.; Daniels, R. N.; Camper, D. V.; Kennedy, J. P.; Phan, J.; Olejniczak, E. O.; Lee, T.; Waterson, A. G.; Rossanese, O. W.; Fesik, S. W. “Approach for targeting Ras with small molecules that activate SOS-mediated nucleotide exchange” Proc. Natl. Acad. Sci. 2014; 11(9): 3401-3406. PMCID: PMC3948241.

Son of Sevenless (SOS) = biological target: T2, Son of Sevenless (SOS) (Homo sapiens, UniProt Q07889); assay: Binding to SOS, fluorescence polarization anisotropy (FPA) displacement of FITC-conjugated probe; settings: binding affinity calculated from IC50 of FITC-probe displacement, read-out: Binding affinities (binding affinity to SOS)
T2 sequence (Q07889 564-1049 limits assumed): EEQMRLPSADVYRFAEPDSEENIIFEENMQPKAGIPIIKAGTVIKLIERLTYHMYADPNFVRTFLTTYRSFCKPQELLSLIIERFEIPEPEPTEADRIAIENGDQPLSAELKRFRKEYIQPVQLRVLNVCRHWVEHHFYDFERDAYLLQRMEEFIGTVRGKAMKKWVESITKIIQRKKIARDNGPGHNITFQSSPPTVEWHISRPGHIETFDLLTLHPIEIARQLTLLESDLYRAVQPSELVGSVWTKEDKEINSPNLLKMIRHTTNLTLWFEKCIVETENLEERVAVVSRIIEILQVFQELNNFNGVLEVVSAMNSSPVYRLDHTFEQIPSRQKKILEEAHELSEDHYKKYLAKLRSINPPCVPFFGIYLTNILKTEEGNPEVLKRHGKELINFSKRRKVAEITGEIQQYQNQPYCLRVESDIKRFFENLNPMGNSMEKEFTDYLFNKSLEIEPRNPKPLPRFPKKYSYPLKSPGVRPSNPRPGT
Procedure: Compounds of the present invention were tested for their ability to the Ras guanine exchange factor (GEF) Son of Sevenless (SOS). Binding to SOS was measured using a Fluorescence polarization anisotropy (FPA) assay that assesses the ability of a test compound to displace a fluorescent FITC-conjugated compound. Briefly, the labeled probe compound is incubated with SOS in buffer. Changes in anisotropy indicative of displacement of the labeled probe for a test compound are assessed over a dose range of test compound. Data was analyzed by plotting fluorescence anisotropy values as a function of compound concentration. IC50 values were determined using a four-parameter dose-response (variable slope) and binding affinities were calculated from this IC50 value. This assay is performed in a method analogous to the assay disclosed in: Burns, M. C.; Sun, Q.; Daniels, R. N.; Camper, D. V.; Kennedy, J. P.; Phan, J.; Olejniczak, E. O.; Lee, T.; Waterson, A. G.; Rossanese, O. W.; Fesik, S. W. “Approach for targeting Ras with small molecules that activate SOS-mediated nucleotide exchange” Proc. Natl. Acad. Sci. 2014; 11(9): 3401-3406. PMCID: PMC3948241.

SMILES: C[C@@H](Nc1nc(NCC2CCCC2)nc2ccccc12)C1CC1 [Example 3, (R)—N^2-(cyclopentylmethyl)-N^4-(1-cyclopropylethyl)quinazoline-2,4-diamine]
EC50 [1]: 1 to 5 µM
Ki (Son of Sevenless (SOS)): > 5 µM

SMILES: C[C@@H](Nc1nc(NCC2CCCCC2)nc2ccccc12)C1CC1 [Example 4, (R)—N^2-(cyclohexylmethyl)-N^4-(1-cyclopropylethyl)quinazoline-2,4-diamine]
EC50 [1]: 1 to 5 µM
Ki (Son of Sevenless (SOS)): > 5 µM

SMILES: Clc1cc(Cl)cc(Nc2nc(NCc3cccs3)c3ccccc3n2)c1 [Example 9, N^2-(3,5-dichlorophenyl)-N^4-(thiophen-2-ylmethyl)quinazoline-2,4-diamine]
EC50 [1]: < 1 µM
Ki (Son of Sevenless (SOS)): > 5 µM

SMILES: Fc1ccc(CNc2nc(NCc3ccco3)c3ccccc3n2)cc1 [Example 14, N^2-(4-fluorobenzyl)-N^4-(furan-2-ylmethyl)quinazoline-2,4-diamine]
EC50 [1]: 1 to 5 µM
Ki (Son of Sevenless (SOS)): > 5 µM

SMILES: C[C@@H](Nc1nc(NCc2ccc(F)cc2F)nc2ccccc12)C1CC1 [Example 19, (R)—N^4-(1-cyclopropylethyl)-N^2-(2,4-difluorobenzyl)quinazoline-2,4-diamine]
EC50 [1]: 5 to 30 µM
Ki (Son of Sevenless (SOS)): > 5 µM

SMILES: C[C@@H](Nc1nc(Nc2cc(F)cc(C#N)c2)nc2ccccc12)C1CC1 [Example 23, (R)-3-((4-((1-cyclopropylethyl)amino)quinazolin-2-yl)amino)-5-fluorobenzonitrile]
EC50 [1]: 1 to 5 µM
Ki (Son of Sevenless (SOS)): > 5 µM

SMILES: COc1cccc(CNc2nc(N[C@H](C)C3CC3)c3ccccc3n2)c1 [Example 27, (R)—N^4-(1-cyclopropylethyl)-N^2-(3-methoxybenzyl)quinazoline-2,4-diamine]
EC50 [1]: 5 to 30 µM
Ki (Son of Sevenless (SOS)): > 5 µM

SMILES: Clc1ccc(Nc2nc(NCc3ccco3)c3ccccc3n2)cc1Cl [Example 32, N^2-(3,4-dichlorophenyl)-N^4-(furan-2-ylmethyl)quinazoline-2,4-diamine]
EC50 [1]: 1 to 5 µM
Ki (Son of Sevenless (SOS)): > 5 µM

SMILES: C[C@@H](Nc1nc(Nc2cc(F)cc(F)c2)nc2ccccc12)c1cccs1 [Example 38, (R)—N^2-(3,5-difluorophenyl)-N^4-(1-(thiophen-2-yl)ethyl)quinazoline-2,4-diamine]
EC50 [1]: 1 to 5 µM
Ki (Son of Sevenless (SOS)): > 5 µM

SMILES: C[C@@H](Nc1nc(Nc2ccc(F)c(Cl)c2)nc2c(N3CCNCC3)cccc12)C1CC1 [Example 52, (R)—N^2-(3-chloro-4-fluorophenyl)-N^4-(1-cyclopropylethyl)-8-(piperazin-1-yl)quinazoline-2,4-diamine]
EC50 [1]: 1 to 5 µM
Ki (Son of Sevenless (SOS)): 1 to 5 µM

SMILES: C[C@@H](Nc1nc(Nc2ccc(F)c(Cl)c2)nc2c(NCCCN(C)C)cccc12)C1CC1 [Example 53, (R)—N^2-(3-chloro-4-fluorophenyl)-N^4-(1-cyclopropylethyl)-N^8-(3-(dimethylamino)propyl)quinazoline-2,4,8-triamine]
EC50 [1]: 5 to 30 µM
Ki (Son of Sevenless (SOS)): > 5 µM

SMILES: C[C@@H](Nc1nc(NCc2cccc(Cl)c2F)nc2c(C3=CCNCC3)cccc12)C(C)(C)C [Example 129, (R)—N^2-(3-chloro-2-fluorobenzyl)-N^4-(3,3-dimethylbutan-2-yl)-8-(1,2,3,6-tetrahydropyridin-4-yl)quinazoline-2,4-diamine]
EC50 [1]: 5 to 30 µM

Continued, values first:

EC50 [1]: 1 to 5 µM
Ki (Son of Sevenless (SOS)): > 5 µM
SMILES: CCC(Nc1nc(Nc2ccc(F)c(Cl)c2)nc2ccccc12)C(C)C (centres unmarked) [Example 2, N^2-(3-chloro-4-fluorophenyl)-N^4-(2-methylpentan-3-yl)quinazoline-2,4-diamine]

EC50 [1]: 1 to 5 µM
Ki (Son of Sevenless (SOS)): > 5 µM
SMILES: Fc1ccc(Nc2nc(NC(C3CC3)C3CC3)c3ccccc3n2)cc1Cl [Example 21, N^2-(3-chloro-4-fluorophenyl)-N^4-(dicyclopropylmethyl)quinazoline-2,4-diamine]

EC50 [1]: 1 to 5 µM
Ki (Son of Sevenless (SOS)): > 5 µM
SMILES: Cc1cc(CNc2nc(N[C@H](C)C3CC3)c3ccccc3n2)ccc1F [Example 24, (R)—N^4-(1-cyclopropylethyl)-N^2-(4-fluoro-3-methylbenzyl)quinazoline-2,4-diamine]

EC50 [1]: 5 to 30 µM
Ki (Son of Sevenless (SOS)): > 5 µM
SMILES: CC[C@@H](Nc1nc(Nc2ccc(F)c(Cl)c2)nc2ccccc12)C1CC1 [Example 34, (R)—N^2-(3-chloro-4-fluorophenyl)-N^4-(1-cyclopropylpropyl)quinazoline-2,4-diamine]

EC50 [1]: 1 to 5 µM
Ki (Son of Sevenless (SOS)): > 5 µM
SMILES: CC[C@@H](Nc1nc(Nc2cc(F)cc(F)c2)nc2ccccc12)C1CC1 [Example 35, (R)—N^4-(1-cyclopropylpropyl)-N^2-(3,5-difluorophenyl)quinazoline-2,4-diamine]

EC50 [1]: 1 to 5 µM
Ki (Son of Sevenless (SOS)): > 5 µM
SMILES: CCC[C@@H](Nc1nc(Nc2ccc(F)c(Cl)c2)nc2ccccc12)C1CC1 [Example 36, (R)—N^2-(3-chloro-4-fluorophenyl)-N^4-(1-cyclopropylbutyl)quinazoline-2,4-diamine]

EC50 [1]: 1 to 5 µM
Ki (Son of Sevenless (SOS)): > 5 µM
SMILES: C[C@@H](Nc1nc(Nc2ccc(F)c(Cl)c2)nc2ccccc12)c1cccs1 [Example 37, (R)—N^2-(3-chloro-4-fluorophenyl)-N^4-(1-(thiophen-2-yl)ethyl)quinazoline-2,4-diamine]

EC50 [1]: 1 to 5 µM
Ki (Son of Sevenless (SOS)): > 5 µM
SMILES: C[C@@H](Nc1nc(Nc2ccc(F)c(Cl)c2)nc2ccccc12)C(C)(C)C [Example 40, (R)—N^2-(3-chloro-4-fluorophenyl)-N^4-(3,3-dimethylbutan-2-yl)quinazoline-2,4-diamine]

EC50 [1]: 1 to 5 µM
Ki (Son of Sevenless (SOS)): > 5 µM
SMILES: CC[C@@H](Nc1nc(Nc2ccc(F)c(Cl)c2)nc2ccccc12)C1CCC1 [Example 42, (R)—N^2-(3-chloro-4-fluorophenyl)-N^4-(1-cyclobutylpropyl)quinazoline-2,4-diamine]
